In patent US20020010210A1, “PHARMACEUTICAL PREPARATION AND METHOD FOR TREATING CANCER” (priority 1997, published 2002):
Where a name gives a salt, the structure may show the parent alone. Numbered stars: 1 amine (or outer) side, 2 acyl side, 3 side chain; on linkers, the order of the positions; unused ones are H or OH. Bridge positions count the residues as written; N and C are the ends. Square brackets hold non-standard residues; d marks the D form. Ends that are not written are not given here. Peptide text beside a SMILES is read from it. I, II: the chains in the order shown. Actinocin(9to1) = Cc1c2oc3c(C)ccc(C(=O)[*:1])c3nc-2c(C(=O)[*:2])c(N)c1=O; NMeV = CN[C@H](C(=O)O)C(C)C; Sar = CNCC(=O)O

How the values were obtained:
[1] = system: spontaneous breast cancer rat cells (SST-2); assay: Lung metastasis of SST-2 in SHR rats, ascorbic acid derivative combined with known anticancer agent (Example 4); assay type: in vivo
[2] = system: spontaneous breast cancer rat cells (SST-2); assay: as above; assay type: in vivo; remark: listed apart in the source
Protocol: 1×100,000 spontaneous breast cancer rat cells (SST-2) were subcutaneously implanted into the back of a rat (SHR rat) (5 rats per group) suffering from spontaneous hypertension. After 35 days, the rats were sacrificed, and the number of colonies formed were measured to examine the degree of metastasis of SST-2 to the lung.
The ascorbic acid derivatives used were L-ascorbic acid-2-phosphate-6-palmitate, L-ascorbic acid-6-benzoate (reference compound) and magnesium L-ascorbic acid-2-phosphate.
Each of the groups treated with an ascorbic acid derivative was subjected to a test of administering the ascorbic acid derivative alone and to a test of administering the ascorbic acid derivative in combination with a known anticancer agent as shown in Table 4. Furthermore, tests of administering the anticancer agents alone were conducted. Over the period of from 7 days prior to implantation to 34 days after the implantation, the ascorbic acid derivative was injected through a vein in the tail region at a dose of 1 mg/1 day/rat. Each of the known anticancer agents was perorally administered in a minimum dose by reference to the concentration for a single use case described in the publication, Tyakuhin Yoran (Medical Product Handbook), 4th Edition, pp. 1474-1509, Yakugyo Jiho-Sha (1989), and the number of colonies formed after metastasis was compared.

[3] = ascorbic acid derivative 1 mg/1 day/rat tail vein, day -7 to day 34, known anticancer agent perorally in minimum dose, colonies after 35 days

| Compound | Cancer metastasis inhibitory effect of combination with L-Ascorbic Acid-2-Phosphate-6-Benzoate versus each agent alone [1, 3] | Cancer metastasis inhibitory effect of combination with L-Ascorbic Acid-6-Palmitate versus each agent alone [1, 3] | Cancer metastasis inhibitory effect of combination with L-Ascorbic Acid-2-Phosphate-6-Palmitate versus each agent alone [2, 3] | Cancer metastasis inhibitory effect of combination with L-Ascorbic Acid-2-Phosphate-6-Benzoate versus each agent alone ([1]; rat, in vivo) | Cancer metastasis inhibitory effect of combination with L-Ascorbic Acid-6-Palmitate versus each agent alone ([1]; rat, in vivo) | Cancer metastasis inhibitory effect of combination with L-Ascorbic Acid-2-Phosphate-6-Palmitate versus each agent alone ([2]; rat, in vivo) |
| --- | --- | --- | --- | --- | --- | --- |
| C[C@]12CC[C@@H]3c4ccc(OC(=O)N(CCCl)CCCl)cc4CC[C@H]3[C@@H]1CC[C@@H]2OP(=O)(O)O [Estracyt (R)] | + | − | + |  |  |  |
| CC(=O)O[C@@H]1C(=O)O[C@H]2[C@@H]1OC(=O)[C@@H]2OC(C)=O [aceglatone] | + | − | + |  |  |  |
| O[C@@H]([C@H](O)[C@H](O)CBr)[C@H](O)CBr [MITOPURNITOL] | + | − | + |  |  |  |
| CC/C(=C(/CC)c1ccc(OP(=O)(O)O)cc1)c1ccc(OP(=O)(O)O)cc1 [HONPAN] | + | − | + |  |  |  |
| S=P(N1CC1)(N1CC1)N1CC1 [TIOTEBA] | + | − | + |  |  |  |
| CC[C@]1(O)C[C@@H]2CN(CCc3c([nH]c4ccccc34)[C@@](C(=O)OC)(c3cc4c(cc3OC)N(C)[C@H]3[C@@](O)(C(N)=O)[C@H](O)[C@]5(CC)C=CCN6CC[C@]43[C@@H]65)C2)C1 [vindesine sulfate] | + | − | + |  |  |  |
| NC(Cc1ccc(N(CCCl)CCCl)cc1)C(=O)O (stereo not drawn) [merphalan] | + | − | + |  |  |  |
| O=c1[nH]c(=O)n(C2CCCO2)cc1F (stereo not drawn) [tegaful] |  |  |  | + | − | + |
| Cc1ncc(CNC(=O)N(CCCl)N=O)c(N)n1 [nimustine hydrochloride] |  |  |  | + | − | + |
| O=P1(N(CCCl)CCCl)NCCCO1 (stereo not drawn) [cyclophosphamido] | + | − | + |  |  |  |
| C[C@]12C[C@H]3S[C@H]3C[C@@H]1CC[C@@H]1[C@@H]2CC[C@]2(C)[C@@H](O)CC[C@@H]12 [epitiostanol] |  |  |  | + | − | + |
| COC1(O[C@H]2CC[C@H]3[C@@H]4CC[C@H]5C[C@@H]6S[C@@H]6C[C@]5(C)[C@H]4CC[C@]23C)CCCC1 [mebitiostan] | + | − | + |  |  |  |
| CN(Cc1cnc2nc(N)nc(N)c2n1)c1ccc(C(=O)N[C@@H](CCC(=O)O)C(=O)O)cc1 [methotrexate] | + | − | + |  |  |  |
| OC[C@H]1O[C@@H](n2cnc3c(S)ncnc32)[C@H](O)[C@@H]1O [thioinosine] | + | − | + |  |  |  |
| pleomycin hydrochloride |  |  |  | + | − | + |
| CS(=O)(=O)OCCCNCCCOS(C)(=O)=O.Cc1ccc(S(=O)(=O)O)cc1 [Protecton (R)] | + | − | + |  |  |  |
| CDPGYIGSR-NH2 [CDPGYGSR-NH2] |  |  |  | + | − | + |
| CN(C)/N=N/c1[nH]cnc1C(N)=O [decarbazine] | + | − | + |  |  |  |
| COC(COC(N)=O)C1=C(N2CC2)C(=O)C(C)=C(N2CC2)C1=O (stereo not drawn) [CARBOCON] | + | − | + |  |  |  |
| COc1cccc2c1C(=O)c1c(O)c3c(c(O)c1C2=O)C[C@@](O)(C(C)=O)C[C@@H]3O[C@H]1C[C@H](N)[C@H](O)[C@H](C)O1 [daunorubicin hydrochloride] |  |  |  | + | − | + |
| O=c1[nH]c(=O)n([C@H]2C[C@H](O)[C@@H](CO)O2)cc1F [floxuridine] | + | − | + |  |  |  |
| Cc1c2oc3c(C)ccc(C(=O)N[C@@H]4C(=O)N[C@H](C(C)C)C(=O)N5CCC[C@H]5C(=O)N(C)CC(=O)N(C)[C@@H](C(C)C)C(=O)O[C@@H]4C)c3nc-2c(C(=O)N[C@@H]2C(=O)N[C@H](C(C)C)C(=O)N3CCC[C@H]3C(=O)N(C)CC(=O)N(C)[C@@H](C(C)C)C(=O)O[C@@H]2C)c(N)c1=O [actinomycin (D)] (I: T[dV]P[Sar][NMeV] / II: T[dV]P[Sar][NMeV]; ester I:1-I:C, II:1-II:C; linker I:N-II:N via Actinocin(9to1)) |  |  |  | + | − | + |
| CO[C@@H]1[C@H](O)C[C@@H](O[C@@H]2C[C@H](Oc3cc4cc5c(c(O)c4c(O)c3C)C(=O)[C@@H](O[C@H]3C[C@@H](O[C@H]4C[C@@H](O[C@H]6C[C@](C)(O)[C@@H](OC(C)=O)[C@H](C)O6)[C@H](O)[C@@H](C)O4)[C@H](O)[C@@H](C)O3)[C@H]([C@H](OC)C(=O)[C@@H](O)[C@@H](C)O)C5)O[C@H](C)[C@@H]2OC(C)=O)O[C@@H]1C [chromomycin A3] | + | − | + |  |  |  |
| CIZOFERAN | + | − | + |  |  |  |
| COc1cccc2c1C(=O)c1c(O)c3c(c(O)c1C2=O)C[C@@](O)(C(=O)CO)C[C@@H]3O[C@H]1C[C@H](N)[C@H](O)[C@H](C)O1 [doxorubicin hydrochloride] | + | − | + |  |  |  |
| CC/C(=C(\c1ccccc1)c1ccc(OCCN(C)C)cc1)c1ccccc1 [tamoxifen citrate] | + | − | + |  |  |  |
| protamine |  |  |  | + | − | + |
